According to ChEMBL document CHEMBL1201862, “PubChem BioAssay data set” (2004):
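Grown in 96-well plates, cells were treated for 48 hours with each compound at five concentrations. Insufficient inhibition: endpoint recorded as highest concentration tested. GI50 marks 50% less growth.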 Calls of active or inactive are those of the source. Rule as the data show it: active = GI50 up to about 1.1 µM and inactive = higher.

Assays:
Test in all cases: NCI anticancer screen, dose series, 48 h
[1] = tested on: MCF7
[2] = tested on: SF-268
[3] = tested on: SK-MEL-28
[4] = tested on: OVCAR-3
[5] = tested on: SF-539
[6] = tested on: K562
[7] = tested on: SW-620
[8] = tested on: UACC-257
[9] = tested on: U-251
[10] = tested on: UACC-62
[11] = tested on: HT-29
[12] = tested on: M14
[13] = tested on: ACHN
[14] = tested on: HCC 2998
[15] = tested on: HOP-62
[16] = tested on: 786-0
[17] = tested on: SNB-19
[18] = tested on: SNB-75
[19] = tested on: HL-60

| Structure (SMILES) | GI50 [1] | GI50 [2] | GI50 [3] | GI50 [4] | GI50 [5] | GI50 [6] | GI50 [7] | GI50 [8] | GI50 [9] | GI50 [10] | GI50 [11] | GI50 [12] | GI50 [13] | GI50 [14] | GI50 [15] | GI50 [16] | GI50 [17] | GI50 [18] | GI50 [19] |
| --- | --- | --- | --- | --- | --- | --- | --- | --- | --- | --- | --- | --- | --- | --- | --- | --- | --- | --- | --- |
| O=C(NC1CCCCC1)c1nn[nH]c1Cl | > 100 µM (inactive) | > 100 µM (inactive) | > 100 µM (inactive) | > 100 µM (inactive) | > 100 µM (inactive) | > 100 µM (inactive) | > 100 µM (inactive) | > 100 µM (inactive) | > 100 µM (inactive) | > 100 µM (inactive) | > 100 µM (inactive) | > 100 µM (inactive) | > 100 µM (inactive) | > 100 µM (inactive) | > 100 µM (inactive) | > 100 µM (inactive) | > 100 µM (inactive) |  |  |
| Cc1cccc(NC(=O)CSc2nnc(-c3ccc(/N=C\c4ccc(Cl)cc4)cc3)o2)c1 |  | > 100 µM (inactive) | > 100 µM (inactive) |  |  | > 100 µM (inactive) | > 100 µM (inactive) | > 100 µM (inactive) | > 100 µM (inactive) | > 100 µM (inactive) | > 100 µM (inactive) | > 100 µM (inactive) | > 100 µM (inactive) |  | > 100 µM (inactive) | > 100 µM (inactive) | > 100 µM (inactive) | > 100 µM (inactive) | > 100 µM (inactive) |
| Cc1ccc2c(c1)C(=S)N1CSCC1c1nncn1-2 (stereo not given) | > 100 µM (inactive) | > 100 µM (inactive) | > 100 µM (inactive) | > 100 µM (inactive) |  | > 100 µM (inactive) | > 100 µM (inactive) | > 100 µM (inactive) | > 100 µM (inactive) | > 100 µM (inactive) | > 100 µM (inactive) | > 100 µM (inactive) | > 100 µM (inactive) | > 100 µM (inactive) | > 100 µM (inactive) | > 100 µM (inactive) | > 100 µM (inactive) | > 100 µM (inactive) |  |
| CC(C)(C)OC(=O)N1NC(c2ccccc2)CC1c1ccccc1 (stereo not given) | 23.7 µM (inactive) | 65.2 µM (inactive) |  | 34.8 µM (inactive) | 42.5 µM (inactive) | 31.7 µM (inactive) | 45 µM (inactive) | 43.7 µM (inactive) |  | 20.6 µM (inactive) | 26.7 µM (inactive) | 16.3 µM (inactive) | 28.1 µM (inactive) | 38.5 µM (inactive) | 50.8 µM (inactive) | 38.3 µM (inactive) |  | 17.1 µM (inactive) |  |
| COC(=O)CCC1(C)C2CCC1/C(=N/O)C2 (stereo not given) | > 100 µM (inactive) | > 100 µM (inactive) | > 100 µM (inactive) | > 100 µM (inactive) |  | > 100 µM (inactive) | > 100 µM (inactive) | > 100 µM (inactive) | > 100 µM (inactive) | > 100 µM (inactive) | > 100 µM (inactive) | > 100 µM (inactive) | > 100 µM (inactive) | > 100 µM (inactive) | > 100 µM (inactive) | > 100 µM (inactive) | > 100 µM (inactive) | > 100 µM (inactive) |  |
| COc1cccc(-c2nc(O)c3ccccc3n2)c1OC | > 100 µM (inactive) | > 100 µM (inactive) |  | > 100 µM (inactive) |  |  | > 100 µM (inactive) | > 100 µM (inactive) | > 100 µM (inactive) | 51.8 µM (inactive) | > 100 µM (inactive) | > 100 µM (inactive) | > 100 µM (inactive) | > 100 µM (inactive) | > 100 µM (inactive) | > 100 µM (inactive) | > 100 µM (inactive) | 46.1 µM (inactive) |  |
| COc1cc([C@@H]2c3cc4c(c(O)c3C[C@H]3COC(=O)[C@@H]32)OCO4)cc(OC)c1O | 0.0377 µM (active) | < 0.02 µM (active) |  |  |  | 0.0243 µM (active) | < 0.02 µM (active) | < 0.02 µM (active) |  | < 0.02 µM (active) | 0.577 µM (active) | 0.00278 µM (active) | 0.00631 µM (active) | 0.0237 µM (active) | < 0.02 µM (active) | 0.00596 µM (active) | 0.796 µM (active) | 25.4 µM (inactive) |  |
